In patent US8859021B2, “Skin appearance through gene manipulation” (Sytheon, priority 2007, dated 2014):

Test system: EpiDerm tissues
Conditions: retinol 10 μg/ml, Sytenol A 5 μg/ml, 2 days

Compound: C=C[C@@](C)(/C=C/c1ccc(O)cc1)CCC=C(C)C [Sytenol A, bakuchiol]
- Laminins up-regulation by Sytenol A relative to retinol: almost three-fold more than retinol
- Lecithin retinol acyltransferase up-regulation by Sytenol A relative to retinol: almost seven-fold higher than by retinol
- Fold Change, ACTN1 Alpha-actinin-1 (Alpha-actinin cytoskeletal isoform) (Table 8) (vs 0.1% DMSO control): +2.70 fold
- Fold Change, ACTN1 Alpha-actinin-1 (Alpha-actinin cytoskeletal isoform) (Table 9) (vs 0.1% DMSO control): +2.70 fold
- Fold Change, ACTN4 Alpha-actinin-4(F-actin cross-linking protein) (Table 8) (vs 0.1% DMSO control): +3.13 fold
- Fold Change, ACTN4 Alpha-actinin-4(F-actin cross-linking protein) (Table 9) (vs 0.1% DMSO control): +3.13 fold
- Fold Change, AFAP1L2 Actin filament-associated protein 1-like 2 (vs 0.1% DMSO control): +3.84 fold
- Fold Change, C16orf30 Claudin-like protein 24 (vs 0.1% DMSO control): No effect
- Fold Change, CDH1 Epithelia-cadherin precursor (E-cadherin) (Table 7) (vs 0.1% DMSO control): +21.56 fold
- Fold Change, CDH1 Epithelial-cadherin precursor (E-cadherin) E-Cad/CTF1 (Table 9) (vs 0.1% DMSO control): +21.56 fold
- Fold Change, CDH3 Cadherin-3-precursor (P-cadherin) (vs 0.1% DMSO control): +7.47 fold
- Fold Change, CDH19 Cadherin-19-precursor (vs 0.1% DMSO control): No effect
- Fold Change, CDH24 Cadherin-24-precursor (vs 0.1% DMSO control): +2.28 fold
- Fold Change, CDK5R1 Tau protein kinase II 23 kDa subunit (Cyclin-dependent kinase 5 activator 1 precursor (CDK5 activator 1)) (vs 0.1% DMSO control): +2.66 fold
- Fold Change, CLDN4 Claudin-4 (Clostridium perfringens enterotoxin receptor) (CPE-R) (vs 0.1% DMSO control): +5.92 fold
- Fold Change, CLDN5 Claudin-5 (Transmembrane protein deleted in VCFS) (vs 0.1% DMSO control): No effect
- Fold Change, CLDN6 Claudin-6 (Skullin 2) (vs 0.1% DMSO control): No effect
- Fold Change, CLDN7 Claudin-7 (CLDN-7) (vs 0.1% DMSO control): +46.09 fold
- Fold Change, CLDN11 Claudin-11 (Oligodendrocyte-specific protein) (vs 0.1% DMSO control): −4.01 fold
- Fold Change, CLDN12 Claudin-12 (vs 0.1% DMSO control): +2.00 fold
- Fold Change, CLDN16 Claudin-16 (Paracellin-1) (PCLN-1) (vs 0.1% DMSO control): +11.62 fold
- Fold Change, COL1A2 Collagen alpha-2 (I) chain precursor (Alpa-2 type I collagen) (vs 0.1% DMSO control): +1.85 fold
- Fold Change, COL3A1 Collagen alpha-1 (III) chain precursor (vs 0.1% DMSO control): No effect
- Fold Change, COL9A2 Collagen alpha-2 (IX) chain precursor (vs 0.1% DMSO control): +6.67 fold
- Fold Change, COL9A3 Collagen alpha-3 (IX) chain precursor (vs 0.1% DMSO control): +5.76 fold
- Fold Change, CTHRC1 Collagen triple helix repeat-containing protein 1 precursor (vs 0.1% DMSO control): −10.17 fold
- Fold Change, CTNNAL1 Alpha-catenin-related protein (ACRP) (Table 8) (vs 0.1% DMSO control): No effect
- Fold Change, CTNNAL1 Alpha-catenin-related protein (ACRP) (Table 9) (vs 0.1% DMSO control): No effect
- Fold Change, CYP26B1 Cytochrome P450 26B1 (Retinoic acid-metabolizing cytochrome) (vs 0.1% DMSO control): −1.74 fold
- Fold Change, Connective tissue growth factor precursor (Hypertrophic chondrocyte-specific protein 24) (vs 0.1% DMSO control): −2.56 fold
- Fold Change, DHRS9 NADP-dependent retinol dehydrogenase/reductase (vs 0.1% DMSO control): +11.56 fold
- Fold Change, DSC1 Desmocollin-1-precursor (DG2/DG3) (vs 0.1% DMSO control): −5.96 fold
- Fold Change, DSC2 Desmocollin-2-precursor (Desmocollin-3) (vs 0.1% DMSO control): +4.68 fold
- Fold Change, DSG1 Desmoglein-1-precursor (DG1) (vs 0.1% DMSO control): −2.26 fold
- Fold Change, DSG2 Desmoglein-2-precursor (vs 0.1% DMSO control): +20.15 fold
- Fold Change, DSG3 Desmoglein-3-precursor (vs 0.1% DMSO control): +4.25 fold
- Fold Change, DSG4 Desmoglein-4-precursor (vs 0.1% DMSO control): +10.59 fold
- Fold Change, ECM1 Extracellular matrix protein 1 precursor (vs 0.1% DMSO control): +2.00 fold
- Fold Change, ECM2 Extracellular matrix protein 2 precursor (vs 0.1% DMSO control): +4.10 fold
- Fold Change, ELA3B Elastase-3B precursor (Elastase IIIB) (vs 0.1% DMSO control): +6.58 fold
- Fold Change, F11R Junctional adhesion molecule 1 (JAM-1) (vs 0.1% DMSO control): +8.92 fold
- Fold Change, FLNB Actin-binding-like protein (vs 0.1% DMSO control): +5.87 fold
- Fold Change, FLRT2 Fibronectin-like-domain-containing leucine-rich transmembrane protein 2 (vs 0.1% DMSO control): No effect
- Fold Change, FLRT3 Fibronectin-like-domain-containing leucine-rich transmembrane protein 3 (vs 0.1% DMSO control): +6.18 fold
- Fold Change, FNDC7 Fibronectin type III domain containing 7 (vs 0.1% DMSO control): +9.14 fold
- Fold Change, Fibroblast growth factor 9 (HBGF-9) (vs 0.1% DMSO control): −2.34 fold
- Fold Change, Fibroblast growth factor 23 precursor (FGF-23) (Tumor-derived hypophosphatemia-inducing factor) (vs 0.1% DMSO control): −3.01 fold
- Fold Change, Fibroblast growth factor receptor 2 precursor (FGFR-2) (vs 0.1% DMSO control): +8.93 fold
- Fold Change, Fibroblast growth factor-binding protein 1 precursor (FGF-BP1) (vs 0.1% DMSO control): +2.69 fold
- Fold Change, GSN Gelsolin precursor (Actin-depolymerizing factor) (ADF) (vs 0.1% DMSO control): +3.19 fold
- Fold Change, HAS2 Hyaluronan synthase 2 (vs 0.1% DMSO control): No effect
- Fold Change, HAS3 Hyaluronan synthase 3 (vs 0.1% DMSO control): +19.29 fold
- Fold Change, HS3ST1 Heparan sulfate 3-O-sulfotransferase 1 (Table 6) (vs 0.1% DMSO control): +24.91 fold
- Fold Change, HS6ST1 Heparan sulfate 6-O-sulfotransferase 1 (vs 0.1% DMSO control): +1.79 fold
- Fold Change, HYAL1 Hyaluronidase-1-precursor (vs 0.1% DMSO control): No effect
- Fold Change, Heparin-binding EGF-like growth factor precursor (HB-EGF) (vs 0.1% DMSO control): +5.09 fold
- Fold Change, IGSF1 Immunoglobulin superfamily, member 1 isoform 1 (vs 0.1% DMSO control): +2.81 fold
- Fold Change, IGSF3 Immunoglobulin superfamily, member 3 isoform 2 (vs 0.1% DMSO control): +3.39 fold
- Fold Change, ITG5 Integrin beta-5 precursor (Table 7) (vs 0.1% DMSO control): No effect
- Fold Change, ITGA6 Integrin alpha-6 precursor (vs 0.1% DMSO control): +3.57 fold
- Fold Change, ITGB2 Integrin beta-2-precursor (vs 0.1% DMSO control): −7.67 fold
- Fold Change, ITGB4 Integrin beta-4 precursor (Table 7) (vs 0.1% DMSO control): +7.98 fold
- Fold Change, ITGB6 Integrin beta-6-precursor (Table 7) (vs 0.1% DMSO control): +7.71 fold
- Fold Change, ITGB8 Integrin beta-8 precursor (Table 3) (vs 0.1% DMSO control): +3.90 fold
- Fold Change, ITGB8 Integrin beta-8 precursor (Table 7) (vs 0.1% DMSO control): +3.90 fold
- Fold Change, Insulin growth factor-like family member 3 precursor (IGBP-3) (vs 0.1% DMSO control): −8.67 fold
- Fold Change, Insulin growth factor-like family member 4 precursor (IGBP-4) (vs 0.1% DMSO control): +2.41 fold
- Fold Change, Insulin-like growth factor-binding protein 6 precursor (IGBP-6) (vs 0.1% DMSO control): +4.03 fold
